Test results from US20110054179A1, “MMP-2 AND/OR MMP-9 INHIBITOR” (priority 2008, published 2011).

Tests used:
[1] = system: elastase-induced lung injury; experiment: Rabbit model of elastase-induced lung injury: lung histology (alveolar destruction, airway subepithelial fibrotic changes); type: in vivo
Excerpt: Rabbits were divided into three groups (n=10 animals/group). Two hundred U/kg of porcine pancreatic elastase (PPE) was intratracheally administered into the lungs of the animals in the Vehicle and the Compound A group. The animals in the Sham group was intratracheally administered the same volume of saline instead of PPE. The rabbits were dissected 28 days after PPE administration. The lung tissue of each rabbit was fixed in formalin to prepare histological sections thereof. Two hours prior to the administration of PPE, Vehicle (0.5% tragacanth) or Compound A (10 mg/kg) was orally administered to the rabbits in the Vehicle and the Compound A group, respectively; from the next day, the oral administration of Vehicle or Compound A was continued once a day, 5 days a week until the end of the experiment. The histological sections were immunohistochemically stained using respective antibodies against MMP-2 or MMP-9. Then, under the microscope, the extent of MMP-2 and MMP-9 expression was evaluated, and expressed as a score. The extent of the fibrotic changes in the airway subepithelial region and the extent of alveolar destruction were also observed.

[2] = system: bleomycin- or asbestos-induced lung fibrosis; details: bleomycin- or asbestos-induced lung fibrosis animal model; cited from earlier work
[3] = 28 days after PPE, 10 mg/kg oral, vs. Vehicle group

SMILES | Alveolar Mean Linear Intercept (Average ± Standard deviation) ([1]; 28 days after PPE 200 U/kg intratracheal, 10 mg/kg oral once a day, 5 days a week, p<0.01 vs. Vehicle) [μm ##] | alveolar destruction [1, 3] | thickening of the airway subepithelial layer resulted from fibrotic changes [1, 3] | increase in MMP activity and the number of white blood cell infiltrated in the bronchoalveolar lavage fluid [2] | lung fibrosis in the histological and biochemical aspects [2]
CCOc1ccc(-c2nc(-c3cccc(C(=O)O)n3)cs2)cc1OCC [Compound A, 6-[2-(3,4-diethoxyphenyl)thiazol-4-yl]pyridine-2-carboxylic acid] | 72.8 ± 2.6 | significantly suppressed | alleviated |  | 
CNC(=O)[C@H](Cc1c[nH]c2ccccc12)NC(=O)[C@@H](CC(=O)NO)CC(C)C [GM6001] |  |  |  | suppressed | suppressed
